Numbered stars: 1 amine (or outer) side, 2 acyl side, 3 side chain; on linkers, the order of the positions; unused ones are H or OH. Square brackets hold non-standard residues; d marks the D form. Peptide text beside a SMILES is read from it. X1 = O=C1[C@@H](N[*:1])Cc2ccccc2CN1CCC(=O)[*:2]; Dmt = Cc1cc(O)cc(C)c1C[C@H](N)C(=O)O
Columns and labels:
[1] = target: T1, Kappa-type opioid receptor (Homo sapiens, UniProt P41145); assay: Agonist activity at human kappa opioid receptor expressed in HEK293 cells assessed as inhibition of forskolin-induced cAMP accumulation incubated for 15 mins followed by forskolin addition in presence of IBMX by Glo-sensor cAMP assay; type: functional, cell-based
[2] = target: Nociceptin receptor (Homo sapiens, UniProt P41146); assay: Agonist activity at human nociceptin receptor expressed in HEK293 cells assessed as inhibition of forskolin-induced cAMP accumulation incubated for 15 mins followed by forskolin addition in presence of IBMX by Glo-sensor cAMP assay; type: functional, cell-based
[3] = target: Mu-type opioid receptor (Homo sapiens) (UniProt P35372); assay: Agonist activity at human mu-opioid receptor expressed in HEK293 cells assessed as inhibition of forskolin-induced cAMP accumulation preincubated for 15 mins followed by forskolin addition in presence of IBMX by Glo-sensor cAMP assay relative to control; type: functional, cell-based; details: filed as agonist
[4] = target: Delta-type opioid receptor (Homo sapiens) (UniProt P41143); assay: Agonist activity at human delta-opioid receptor expressed in HEK293 cells assessed as inhibition of forskolin-induced cAMP accumulation preincubated for 15 mins followed by forskolin addition in presence of IBMX by Glo-sensor cAMP assay relative to control; type: functional, cell-based; details: filed as agonist
[5] = target: T1, Kappa-type opioid receptor; assay: Agonist activity at human kappa opioid receptor expressed in HEK293 cells assessed as inhibition of forskolin-induced cAMP accumulation incubated for 15 mins followed by forskolin addition in presence of IBMX by Glo-sensor cAMP assay relative to control; type: functional, cell-based; details: filed as agonist
[6] = target: T2, Neuropeptide FF receptor 1 (Homo sapiens, UniProt Q9GZQ6); assay: Agonist activity at human NPFFR1 expressed in CHO cells by [35S]-GTP S binding assay relative to control; type: cell-based; details: filed as agonist
[7] = target: T3, Neuropeptide FF receptor 2 (Homo sapiens, UniProt Q9Y5X5); assay: Agonist activity at human NPFFR2 expressed in CHO cells by [35S]-GTP S binding assay relative to control; type: cell-based; details: filed as agonist
[8] = target: T2, Neuropeptide FF receptor 1; assay: Agonist activity at NPFFR1 (unknown origin) expressed in mouse NIH3T3 cells by receptor selection and amplification technology assay relative to control; type: cell-based
[9] = target: T3, Neuropeptide FF receptor 2; assay: Agonist activity at NPFFR2 (unknown origin) expressed in mouse NIH3T3 cells by receptor selection and amplification technology assay relative to control; type: cell-based; details: filed as agonist
[10] = target: T2, Neuropeptide FF receptor 1; assay: Agonist activity at NPFFR1 (unknown origin) expressed in mouse NIH3T3 cells by receptor selection and amplification technology assay; type: cell-based
[11] = target: T2, Neuropeptide FF receptor 1; assay: Agonist activity at NPFFR1 (unknown origin) expressed in HEK293T cells harboring EP2 incubated for 15 mins by cAMP assay relative to control; type: functional, cell-based
[12] = target: T2, Neuropeptide FF receptor 1; assay: Agonist activity at NPFFR1 (unknown origin) expressed in HEK293T cells harboring EP2 incubated for 15 mins by cAMP assay; type: functional, cell-based
[13] = target: T3, Neuropeptide FF receptor 2; assay: Agonist activity at NPFFR2 (unknown origin) expressed in HEK293T cells harboring EP2 incubated for 15 mins by cAMP assay relative to control; type: functional, cell-based; details: filed as agonist
[14] = target: T3, Neuropeptide FF receptor 2; assay: Agonist activity at NPFFR2 (unknown origin) expressed in HEK293T cells harboring EP2 incubated for 15 mins by cAMP assay; type: functional, cell-based
[15] = target: T2, Neuropeptide FF receptor 1; assay: Binding affinity to human NPFFR1 by radioligand binding assay
[16] = target: T3, Neuropeptide FF receptor 2; assay: Binding affinity to human NPFFR2 by radioligand binding assay
[17] = target: Neuropeptide FF receptor 1 (Rattus norvegicus, UniProt Q9EP86); assay: Binding affinity to rat NPFFR1 by radioligand binding assay
[18] = target: Neuropeptide FF receptor 2 (Rattus norvegicus, UniProt Q9EQD2); assay: Binding affinity to rat NPFFR2 by radioligand binding assay
[19] = target: T3, Neuropeptide FF receptor 2; assay: Agonist activity at human NPFFR2 expressed in CHO cells assessed as inhibition of forskolin-induced cAMP accumulation incubated for 30 mins by LANCE cAMP assay; type: functional, cell-based
[20] = target: T3, Neuropeptide FF receptor 2; assay: Agonist activity at NPFFR2 (unknown origin) expressed in HEK293 cells assessed as inhibition of forskolin-induced cAMP accumulation incubated for 30 mins relative to control; type: functional, cell-based; details: filed as agonist
[21] = target: T1, Kappa-type opioid receptor; assay: Agonist activity at kappa opioid receptor (unknown origin) expressed in HEK-293A cells assessed as inhibition of forskolin-induced cAMP accumulation preincubated for 30 mins followed by [3H] cAMP addition measured after 2 hrs by scintillation counting method; type: functional, cell-based, HEK293-A
[22] = target: T2, Neuropeptide FF receptor 1; assay: Agonist activity at NPFFR1 (unknown origin) expressed in HEK-293A cells assessed as inhibition of forskolin-induced cAMP accumulation preincubated for 30 mins followed by [3H] cAMP addition measured after 2 hrs by scintillation counting method; type: functional, cell-based, HEK293-A
[23] = target: T3, Neuropeptide FF receptor 2; assay: Agonist activity at NPFFR2 (unknown origin) expressed in HEK-293A cells assessed as inhibition of forskolin-induced cAMP accumulation preincubated for 30 mins followed by [3H] cAMP addition measured after 2 hrs by scintillation counting method; type: functional, cell-based, HEK293-A
[24] = target: T2, Neuropeptide FF receptor 1; assay: Displacement of [125I]YVP from human NPFFR1 expressed in CHO cells; type: cell-based
[25] = target: T3, Neuropeptide FF receptor 2; assay: Displacement of [125I]Tyr-NPFF from human NPFFR2 expressed in green monkey Cos-1 cells; type: cell-based
[26] = target: T2, Neuropeptide FF receptor 1; assay: Antagonist activity at human NPFFR1 expressed in CHO cells assessed as reversal of NPVF-induced inhibition of forskolin-stimulated cAMP accumulation incubated for 10 mins by liquid scintillation counting method; type: functional, cell-based
[27] = target: T2, Neuropeptide FF receptor 1; assay: Antagonist activity at human NPFFR1 expressed in CHO-K1 cells assessed as reversal of agonist-induced inhibition of forskolin-stimulated cAMP accumulation incubated for 30 mins by LANCE ultra cAMP assay; type: functional, cell-based
[28] = target: T3, Neuropeptide FF receptor 2; assay: Antagonist activity at human NPFFR2 expressed in CHO-K1 cells assessed as reversal of agonist-induced inhibition of forskolin-stimulated cAMP accumulation incubated for 30 mins by LANCE ultra cAMP assay; type: functional, cell-based
[29] = target: T2, Neuropeptide FF receptor 1; assay: Displacement of [3H]-FFRF-NH2 from human NPFFR1 expressed in CHO cell membrane by Topcount scintillation counting method; type: cell membranes
[30] = target: T3, Neuropeptide FF receptor 2; assay: Displacement of [3H]-FFRF-NH2 from human NPFFR2 expressed in CHO cell membrane by Topcount scintillation counting method; type: cell membranes
[31] = target: T4, Prolactin-releasing peptide receptor (Homo sapiens, UniProt P49683); assay: Displacement of [3H]-PrRP-20 from human PrRP receptor expressed in CHO cell membrane by TopCount scintillation counter method; type: cell membranes
T4 sequence (P49683 whole entry): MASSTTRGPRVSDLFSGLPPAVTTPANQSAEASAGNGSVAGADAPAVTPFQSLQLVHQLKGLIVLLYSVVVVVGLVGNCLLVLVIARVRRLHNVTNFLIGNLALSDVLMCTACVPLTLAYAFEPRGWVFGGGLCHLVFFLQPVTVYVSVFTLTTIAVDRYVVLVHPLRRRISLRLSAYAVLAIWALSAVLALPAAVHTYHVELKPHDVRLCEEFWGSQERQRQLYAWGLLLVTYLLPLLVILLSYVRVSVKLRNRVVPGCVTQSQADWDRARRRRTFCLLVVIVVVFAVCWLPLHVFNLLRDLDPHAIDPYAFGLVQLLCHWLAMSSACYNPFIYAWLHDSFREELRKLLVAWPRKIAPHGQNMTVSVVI

[32] = target: KiSS-1 receptor (Homo sapiens, UniProt Q969F8); assay: Displacement of [125I]-Kp-10 from human KISS1R expressed in CHO cell membrane by TopCount scintillation counter method; type: cell membranes
[33] = target: T5, Pyroglutamylated RF-amide peptide receptor (Homo sapiens, UniProt Q96P65); assay: Displacement of [125I]-43RFa from human QRFP receptor expressed in CHO cell membrane by TopCount scintillation counter method; type: cell membranes
T5 sequence (Q96P65 whole entry): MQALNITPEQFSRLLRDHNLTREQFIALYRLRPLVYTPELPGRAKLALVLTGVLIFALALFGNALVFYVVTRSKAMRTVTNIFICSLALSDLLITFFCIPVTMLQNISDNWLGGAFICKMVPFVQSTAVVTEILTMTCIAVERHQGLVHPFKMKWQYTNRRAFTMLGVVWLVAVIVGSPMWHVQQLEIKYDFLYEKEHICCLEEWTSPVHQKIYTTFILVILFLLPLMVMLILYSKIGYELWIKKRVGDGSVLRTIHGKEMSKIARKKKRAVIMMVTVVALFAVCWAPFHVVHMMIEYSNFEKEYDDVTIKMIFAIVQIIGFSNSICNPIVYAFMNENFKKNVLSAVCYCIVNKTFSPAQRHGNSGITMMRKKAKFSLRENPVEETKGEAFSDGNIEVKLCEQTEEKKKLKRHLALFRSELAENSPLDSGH

[34] = target: T3, Neuropeptide FF receptor 2; assay: Agonist activity at NPFFR2 (unknown origin) expressed in mouse NIH3T3 cells by receptor selection and amplification technology assay; type: cell-based
[35] = target: T2, Neuropeptide FF receptor 1; assay: Displacement of 125I-NPFF from human NPFFR1 incubated for 2 hrs by TopCount scintillation counting method
[36] = target: T3, Neuropeptide FF receptor 2; assay: Displacement of 125I-NPFF from human NPFFR2 incubated for 2 hrs by TopCount scintillation counting method
[37] = target: T2, Neuropeptide FF receptor 1; assay: Displacement of [3H]-FFRF-NH2 from human FLAG-tagged NPFFR1 expressed in CHO cell membrane incubated for 30 mins by Topcount scintillation counting method
[38] = target: T3, Neuropeptide FF receptor 2; assay: Displacement of [3H]-FFRF-NH2 from human FLAG-tagged NPFFR2 expressed in CHO cell membrane incubated for 30 mins by Topcount scintillation counting method

T3 sequence (Q9Y5X5 whole entry): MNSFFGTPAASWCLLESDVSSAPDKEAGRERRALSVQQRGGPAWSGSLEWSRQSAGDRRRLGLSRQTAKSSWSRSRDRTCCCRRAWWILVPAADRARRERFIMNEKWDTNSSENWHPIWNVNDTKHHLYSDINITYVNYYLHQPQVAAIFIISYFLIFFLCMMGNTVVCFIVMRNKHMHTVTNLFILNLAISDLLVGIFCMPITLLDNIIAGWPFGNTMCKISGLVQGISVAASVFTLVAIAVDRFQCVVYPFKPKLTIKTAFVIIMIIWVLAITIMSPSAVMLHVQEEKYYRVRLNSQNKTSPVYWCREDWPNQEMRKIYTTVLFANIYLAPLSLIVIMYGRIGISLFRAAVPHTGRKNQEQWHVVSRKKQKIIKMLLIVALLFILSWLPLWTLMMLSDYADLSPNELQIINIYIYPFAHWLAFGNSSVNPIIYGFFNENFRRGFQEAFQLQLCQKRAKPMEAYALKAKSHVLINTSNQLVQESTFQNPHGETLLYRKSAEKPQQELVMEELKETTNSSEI
T2 sequence (Q9GZQ6 whole entry): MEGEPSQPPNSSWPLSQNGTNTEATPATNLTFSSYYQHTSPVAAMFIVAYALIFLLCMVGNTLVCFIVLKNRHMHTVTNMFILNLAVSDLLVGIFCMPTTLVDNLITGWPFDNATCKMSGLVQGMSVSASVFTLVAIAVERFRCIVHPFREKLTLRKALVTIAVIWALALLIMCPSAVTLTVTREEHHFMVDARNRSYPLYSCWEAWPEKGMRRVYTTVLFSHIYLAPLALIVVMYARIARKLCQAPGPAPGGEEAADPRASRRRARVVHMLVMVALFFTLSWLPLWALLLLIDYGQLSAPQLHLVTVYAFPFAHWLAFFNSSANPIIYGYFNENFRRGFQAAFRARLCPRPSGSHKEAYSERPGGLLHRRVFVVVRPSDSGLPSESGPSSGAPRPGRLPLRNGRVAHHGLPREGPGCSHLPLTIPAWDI
T1 sequence (P41145 whole entry): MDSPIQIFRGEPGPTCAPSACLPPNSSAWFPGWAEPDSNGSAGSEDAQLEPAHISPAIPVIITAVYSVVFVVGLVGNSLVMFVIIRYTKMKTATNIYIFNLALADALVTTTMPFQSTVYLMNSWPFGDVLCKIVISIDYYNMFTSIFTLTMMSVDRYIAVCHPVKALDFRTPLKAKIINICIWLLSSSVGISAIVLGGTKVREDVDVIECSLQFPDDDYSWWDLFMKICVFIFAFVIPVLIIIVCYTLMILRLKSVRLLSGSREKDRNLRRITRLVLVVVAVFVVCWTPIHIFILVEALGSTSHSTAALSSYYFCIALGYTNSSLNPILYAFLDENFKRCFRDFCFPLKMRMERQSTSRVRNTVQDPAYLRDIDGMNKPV
Chain of Mu-type opioid receptor (Homo sapiens) (P35372 whole entry): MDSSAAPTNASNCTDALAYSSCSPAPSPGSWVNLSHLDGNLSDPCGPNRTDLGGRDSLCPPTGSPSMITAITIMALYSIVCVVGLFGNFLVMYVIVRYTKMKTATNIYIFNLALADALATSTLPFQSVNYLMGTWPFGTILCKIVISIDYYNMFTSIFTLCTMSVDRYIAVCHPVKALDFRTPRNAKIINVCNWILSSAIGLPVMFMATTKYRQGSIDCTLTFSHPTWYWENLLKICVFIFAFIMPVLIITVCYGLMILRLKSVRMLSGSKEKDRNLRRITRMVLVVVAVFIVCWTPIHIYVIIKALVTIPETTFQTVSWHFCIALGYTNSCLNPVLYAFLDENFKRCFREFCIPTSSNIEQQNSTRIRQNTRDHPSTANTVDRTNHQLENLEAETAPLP
Chain of Delta-type opioid receptor (Homo sapiens) (P41143 whole entry): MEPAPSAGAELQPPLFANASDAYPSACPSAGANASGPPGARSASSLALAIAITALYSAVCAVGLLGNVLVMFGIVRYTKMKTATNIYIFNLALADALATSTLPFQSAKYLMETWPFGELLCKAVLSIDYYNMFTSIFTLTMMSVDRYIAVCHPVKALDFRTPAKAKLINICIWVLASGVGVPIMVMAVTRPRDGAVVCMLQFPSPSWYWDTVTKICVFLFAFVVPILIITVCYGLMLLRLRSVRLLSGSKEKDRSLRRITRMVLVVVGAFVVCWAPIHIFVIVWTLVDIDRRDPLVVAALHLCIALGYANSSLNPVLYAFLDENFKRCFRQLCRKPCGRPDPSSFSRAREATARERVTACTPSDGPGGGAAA
Chain of Neuropeptide FF receptor 1 (Rattus norvegicus, UniProt Q9EP86) (Q9EP86 whole entry): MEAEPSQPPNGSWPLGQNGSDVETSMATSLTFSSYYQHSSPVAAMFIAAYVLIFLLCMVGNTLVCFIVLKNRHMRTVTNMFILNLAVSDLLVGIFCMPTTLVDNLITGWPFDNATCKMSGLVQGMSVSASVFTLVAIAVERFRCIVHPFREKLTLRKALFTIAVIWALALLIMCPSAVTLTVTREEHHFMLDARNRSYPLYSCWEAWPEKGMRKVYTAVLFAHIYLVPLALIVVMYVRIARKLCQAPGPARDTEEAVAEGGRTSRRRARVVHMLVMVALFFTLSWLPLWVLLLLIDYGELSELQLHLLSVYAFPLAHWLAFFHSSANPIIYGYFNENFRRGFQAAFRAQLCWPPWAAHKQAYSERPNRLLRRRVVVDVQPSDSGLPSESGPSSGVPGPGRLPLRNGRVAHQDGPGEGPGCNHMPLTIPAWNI
Chain of Neuropeptide FF receptor 2 (Rattus norvegicus, UniProt Q9EQD2) (Q9EQD2 whole entry): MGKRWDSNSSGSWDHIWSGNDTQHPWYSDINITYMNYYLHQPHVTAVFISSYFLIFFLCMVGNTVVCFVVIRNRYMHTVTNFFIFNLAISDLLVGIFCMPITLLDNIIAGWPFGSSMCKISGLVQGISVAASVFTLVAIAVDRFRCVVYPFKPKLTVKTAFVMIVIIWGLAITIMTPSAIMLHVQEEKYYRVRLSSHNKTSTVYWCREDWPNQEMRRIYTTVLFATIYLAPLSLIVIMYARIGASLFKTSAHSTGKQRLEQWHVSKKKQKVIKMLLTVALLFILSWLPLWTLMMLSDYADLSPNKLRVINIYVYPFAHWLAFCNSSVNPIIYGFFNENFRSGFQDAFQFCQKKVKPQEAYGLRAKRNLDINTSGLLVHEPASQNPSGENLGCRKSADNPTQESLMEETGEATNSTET
Chain of KiSS-1 receptor (Q969F8 whole entry): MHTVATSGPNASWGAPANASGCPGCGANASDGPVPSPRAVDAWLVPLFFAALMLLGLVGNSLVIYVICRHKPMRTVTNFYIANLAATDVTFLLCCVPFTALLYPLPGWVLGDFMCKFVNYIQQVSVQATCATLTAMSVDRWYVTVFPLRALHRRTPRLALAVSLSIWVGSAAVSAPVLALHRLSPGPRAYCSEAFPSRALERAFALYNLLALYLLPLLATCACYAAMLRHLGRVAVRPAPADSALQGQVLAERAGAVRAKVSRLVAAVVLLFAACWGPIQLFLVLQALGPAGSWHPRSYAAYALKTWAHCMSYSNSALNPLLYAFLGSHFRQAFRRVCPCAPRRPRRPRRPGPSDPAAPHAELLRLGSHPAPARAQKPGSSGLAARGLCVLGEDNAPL
Chain of Nociceptin receptor (P41146 whole entry): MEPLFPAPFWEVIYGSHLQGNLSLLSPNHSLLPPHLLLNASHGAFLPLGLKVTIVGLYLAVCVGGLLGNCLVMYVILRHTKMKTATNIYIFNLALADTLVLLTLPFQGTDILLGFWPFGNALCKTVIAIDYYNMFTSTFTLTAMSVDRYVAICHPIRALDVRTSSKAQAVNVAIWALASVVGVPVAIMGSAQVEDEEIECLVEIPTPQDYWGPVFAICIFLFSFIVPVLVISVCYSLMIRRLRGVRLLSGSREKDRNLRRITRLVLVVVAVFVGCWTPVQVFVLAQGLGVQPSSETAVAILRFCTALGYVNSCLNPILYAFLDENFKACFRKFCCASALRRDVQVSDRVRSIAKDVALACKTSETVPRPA

SMILES: Cc1cc(O)cc(C)c1C[C@H](N)C(=O)N[C@H](CCCNC(=N)N)C(=O)N[C@H]1Cc2ccccc2CN(CCC(=O)N[C@@H](CCCNC(=N)N)C(=O)N[C@@H](Cc2ccccc2)C(N)=O)C1=O (H-[Dmt][dR][X1]RF-NH2)
- EC50 [1]: 108 nM
- EC50 [2]: > 10000 nM
- Emax [3]: 92%
- Emax [4]: 89%
- Emax [5]: 95%
- Emax [6]: 88%
- Emax [7]: 111%

SMILES: N=C(N)N/N=C/c1ccc(-c2ccccc2C(F)(F)F)o1
- Efficacy ([8]; filed as agonist): 57.8%
- Efficacy [9]: 72.1%
- EC50 [10]: 251 nM
- Efficacy ([11]; filed as agonist): 93%
- EC50 [12]: 1260 nM
- Efficacy [13]: 114%
- EC50 [14]: 3160 nM

SMILES: Cc1cc(NC(=N)N)nc2ccccc12
- Ki [15]: 13 nM
- Ki [16]: 91 nM
- Ki [17]: 7 nM
- Ki [18]: 185 nM

SMILES: C[C@@H](NC(=O)[C@@H](N)Cc1ccc(O)cc1)C(=O)NCC(=O)N[C@@H](Cc1ccccc1)C(=O)N[C@@H](CCC(N)=O)C(=O)N1CCC[C@H]1C(=O)N[C@@H](CCC(N)=O)C(=O)N[C@@H](CCCNC(=N)N)C(=O)N[C@@H](Cc1ccccc1)C(N)=O (H-Y[dA]GFQPQRF-NH2)
- EC50 [19]: 178 nM
- Emax [20]: 117%

SMILES: N=C(N)NCCC[C@H](NC(=O)[C@H](CCC(N)=O)NC(=O)[C@@H]1CCCN1C(=O)[C@H](CCC(N)=O)NC(=O)[C@H](Cc1ccccc1)NC(=O)[C@H](Cc1ccccc1)NC(=O)[C@@H]1CCCN1C(=O)[C@@H](N)Cc1ccc(O)cc1)C(=O)N[C@@H](Cc1ccccc1)C(N)=O (H-YPFFQPQRF-NH2)
- EC50 [21]: 4.44 nM
- EC50 [22]: 599 nM
- EC50 [23]: 25.3 nM

SMILES: NC(=O)[C@H](Cc1ccccc1)NC(=O)[C@H](CCCN=C(N)N)NC(=O)C12CC3CC(CC(C3)C1)C2
- Ki [24]: 58 nM
- Ki [25]: 75 nM
- EC50 [26]: 4700 nM

SMILES: N=C(N)NCCC[C@@H](NC(=O)C(c1ccccc1)c1ccccc1)C(=O)N[C@@H](C(N)=O)c1ccccc1
- IC50 [27]: 21 nM
- IC50 [28]: 387 nM

SMILES: NC1=NC=C(c2ccc(Cl)c(Cl)c2)CN1
- Ki [29]: 1 nM
- Ki [30]: 37 nM
- Ki [31]: > 5000 nM
- Ki [32]: > 5000 nM
- Ki [33]: > 5000 nM

SMILES: N=C(N)N/N=C/c1ccc(Br)c(Br)c1
- Efficacy [8]: 11%
- EC50 [34]: 794 nM
- Efficacy [11]: 23%
- Ki [35]: 100 nM
- Ki [36]: 126 nM

SMILES: O=C(N[C@@H](CCCN1CCCCC1)C(=O)NCCc1ccccc1)c1ccccc1-c1ccccc1
- Ki [37]: 172 nM
- Ki [38]: 560 nM

Reference: ChEMBL document CHEMBL4765381, “Neuropeptide FF and Its Receptors: Therapeutic Applications and Ligand Development” (J Med Chem, 2020)
